# Source: the supplement of paper PMC9663587
# What was measured:
# [1] = compound: COc1cc2nccc(Oc3ccc(NC(=O)C4(C(=O)Nc5ccc(F)cc5)CC4)cc3)c2cc1OC [Cabozantinib]
# [2] = compound: CC(=O)O[C@H]1C(=O)[C@@]2(C)[C@H]([C@H](OC(=O)c3ccccc3)[C@]3(O)C[C@H](OC(=O)[C@H](O)[C@@H](NC(=O)c4ccccc4)c4ccccc4)C(C)=C1C3(C)C)[C@]1(OC(C)=O)CO[C@@H]1C[C@@H]2O [Paclitaxel]
# [3] = compound: CCN1CCN(Cc2ccc(Nc3ncc(F)c(-c4cc(F)c5nc(C)n(C(C)C)c5c4)n3)nc2)CC1
# [4] = compound: CC(=O)c1c(C)c2cnc(Nc3ccc(N4CCN(CCOCCOCCOCCNC(=O)COc5cccc6c5C(=O)N(C5CCC(=O)NC5=O)C6=O)CC4)cn3)nc2n(C2CCCC2)c1=O [BSJ-03-123]
# [5] = compound: O=C(CCCCCCC(=O)Nc1ccccc1)NO [Vorinostat]
# [6] = compound: NC1(C(=O)N[C@@H](CCO)c2ccc(Cl)cc2)CCN(c2nc[nH]c3nccc2-3)CC1 [AZD5363]
# [7] = compound: Nc1cc(C(F)(F)F)c(-c2cc(N3CCOCC3)nc(N3CCOCC3)n2)cn1 [Buparlisib/NVP-BKM120]
# [8] = compound: CC1(CCN(CC1)C2=CN=C(C(=N2)N)C3=C(C(=CC=C3)Cl)Cl)N [SHP099]
# [9] = compound: CCc1cnn2c(NCc3ccc[n+]([O-])c3)cc(N3CCCC[C@H]3CCO)nc12
# [10] = compound: CN(C)C(=O)c1cc2cnc(Nc3ccc(N4CCNCC4)cn3)nc2n1C1CCCC1 [LEE011/Ribociclib]; assay: GR value, 72 h; higher = faster growth (1 = untreated, <0 = killing);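 note: breast cancer and non-malignant breast epithelial lines, nine half-log doses, viable cells counted by Hoechst and LIVE/DEAD dye imaging versus time-zero plates and DMSO controls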
# [11] = compound: CN(C)C/C=C/C(=O)Nc1ccc(C(=O)Nc2cccc(Nc3ncc(Cl)c(-c4c[nH]c5ccccc45)n3)c2)cc1 [THZ1]; assay: as above
# [12] = compound: CCN1CCN(Cc2ccc(Nc3ncc(F)c(-c4cc(F)c5nc(C)n(C(C)C)c5c4)n3)nc2)CC1; assay: as above
# [13] = compound: CC(=O)c1c(C)c2cnc(Nc3ccc(N4CCNCC4)cn3)nc2n(C2CCCC2)c1=O; assay: as above
# [14] = compound: CN(C)C/C=C/C(=O)Nc1ccc(C(=O)N2CCC[C@@H](Nc3ncc(Cl)c(-c4c[nH]c5ccccc45)n3)C2)cc1 [THZ531]; assay: as above
# [15] = compound: C=CC(=O)Nc1ccc(C(=O)Nc2[nH]nc3c2CN(C(=O)N[C@H](CN(C)C)c2ccccc2)C3(C)C)cc1 [YKL-5-124]; assay: as above
# [16] = compound: CN1CC[C@H](c2c(O)cc(O)c3c(=O)cc(-c4ccccc4Cl)oc23)[C@H](O)C1 [Flavopiridol]; assay: as above
# [17] = compound: CCc1cnn2c(NCc3ccc[n+]([O-])c3)cc(N3CCCC[C@H]3CCO)nc12; assay: as above
# 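Throughout, for GR50, 72 h: breast cancer and non-malignant breast epithelial cell lines, Deep Dye Drop or Dye Drop imaging, nine half-log doses, GR normalized to time-zero plates and DMSO-only controls.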
cell line,measurement,setting,value
SUM149,"GR50, 72 h",[1],5.87 µM
same,"GR50, 72 h",[2],0.00159 µM
same,"GR50, 72 h",[3],0.594 µM
same,"GR50, 72 h",[4],1.33 µM
same,"GR50, 72 h",[5],1.37 µM
same,"GR50, 72 h",[6],6.67 µM
same,"GR50, 72 h",[7],1.45 µM
same,"GR50, 72 h",[8],> 10 µM
same,"GR50, 72 h",[9],0.0134 µM
same,GR value,[10]; 0.001 µM,0.951 GR
same,GR value,[10]; 0.003162 µM,0.904 GR
same,GR value,[10]; 0.01 µM,0.916 GR
same,GR value,[10]; 0.03162 µM,0.885 GR
same,GR value,[10]; 0.1 µM,0.776 GR
same,GR value,[10]; 0.3162 µM,0.771 GR
same,GR value,[10]; 1 µM,0.764 GR
same,GR value,[10]; 3.162 µM,0.669 GR
same,GR value,[10]; 10 µM,0.599 GR
same,GR value,[11]; 0.0001 µM,0.968 GR
same,GR value,[11]; 0.0003162 µM,0.963 GR
same,GR value,[11]; 0.001 µM,1.04 GR
same,GR value,[11]; 0.003162 µM,0.927 GR
same,GR value,[11]; 0.01 µM,0.923 GR
same,GR value,[11]; 0.03162 µM,0.704 GR
same,GR value,[11]; 0.1 µM,0.165 GR
same,GR value,[11]; 0.3162 µM,-0.351 GR
same,GR value,[11]; 1 µM,-0.506 GR
same,GR value,[12]; 0.001 µM,0.973 GR
same,GR value,[12]; 0.003162 µM,1.02 GR
same,GR value,[12]; 0.01 µM,0.875 GR
same,GR value,[12]; 0.03162 µM,0.751 GR
same,GR value,[12]; 0.1 µM,0.666 GR
same,GR value,[12]; 0.3162 µM,0.562 GR
same,GR value,[12]; 1 µM,0.417 GR
same,GR value,[12]; 3.162 µM,0.375 GR
same,GR value,[12]; 10 µM,0.0944 GR
same,GR value,[13]; 0.0003162 µM,1.02 GR
same,GR value,[13]; 0.001 µM,1.03 GR
same,GR value,[13]; 0.003162 µM,0.983 GR
same,GR value,[13]; 0.01 µM,0.981 GR
same,GR value,[13]; 0.03162 µM,0.82 GR
same,GR value,[13]; 0.1 µM,0.701 GR
same,GR value,[13]; 0.3162 µM,0.623 GR
same,GR value,[13]; 1 µM,0.567 GR
same,GR value,[13]; 3.162 µM,0.485 GR
same,GR value,[14]; 0.0001 µM,0.986 GR
same,GR value,[14]; 0.0003162 µM,0.996 GR
same,GR value,[14]; 0.001 µM,0.931 GR
same,GR value,[14]; 0.003162 µM,1.03 GR
same,GR value,[14]; 0.01 µM,1.05 GR
same,GR value,[14]; 0.03162 µM,0.999 GR
same,GR value,[14]; 0.1 µM,0.963 GR
same,GR value,[14]; 0.3162 µM,0.598 GR
same,GR value,[14]; 1 µM,-0.539 GR
same,GR value,[15]; 0.001 µM,0.351 GR
same,GR value,[15]; 0.003162 µM,0.226 GR
same,GR value,[15]; 0.01 µM,0.228 GR
same,GR value,[15]; 0.03162 µM,0.141 GR
same,GR value,[15]; 0.1 µM,0.132 GR
same,GR value,[15]; 0.3162 µM,0.114 GR
same,GR value,[15]; 1 µM,0.0596 GR
same,GR value,[15]; 3.162 µM,0.0431 GR
same,GR value,[15]; 10 µM,-0.104 GR
same,GR value,[16]; 0.0001 µM,0.972 GR
same,GR value,[16]; 0.0003162 µM,1.01 GR
same,GR value,[16]; 0.001 µM,0.951 GR
same,GR value,[16]; 0.003162 µM,0.944 GR
same,GR value,[16]; 0.01 µM,0.862 GR
same,GR value,[16]; 0.03162 µM,0.964 GR
same,GR value,[16]; 0.1 µM,0.788 GR
same,GR value,[16]; 0.3162 µM,0.177 GR
same,GR value,[16]; 1 µM,-0.591 GR
same,GR value,[17]; 0.0001 µM,1.01 GR
same,GR value,[17]; 0.0003162 µM,1.04 GR
same,GR value,[17]; 0.001 µM,1.01 GR
same,GR value,[17]; 0.003162 µM,1.03 GR
same,GR value,[17]; 0.01 µM,0.828 GR
same,GR value,[17]; 0.03162 µM,-0.457 GR
same,GR value,[17]; 0.1 µM,-0.575 GR
same,GR value,[17]; 0.3162 µM,-0.578 GR
same,GR value,[17]; 1 µM,-0.561 GR
SUM159,"GR50, 72 h",[1],7.15 µM
same,"GR50, 72 h",[2],0.00542 µM
same,"GR50, 72 h",[3],0.565 µM
same,"GR50, 72 h",[4],1.94 µM
same,"GR50, 72 h",[5],3.28 µM
same,"GR50, 72 h",[6],9.8 µM
same,"GR50, 72 h",[7],2.21 µM
same,"GR50, 72 h",[8],> 10 µM
same,"GR50, 72 h",[9],0.0169 µM
same,GR value,[10]; 0.001 µM,0.942 GR
same,GR value,[10]; 0.003162 µM,0.892 GR
same,GR value,[10]; 0.01 µM,0.835 GR
same,GR value,[10]; 0.03162 µM,0.814 GR
same,GR value,[10]; 0.1 µM,0.786 GR
same,GR value,[10]; 0.3162 µM,0.73 GR
same,GR value,[10]; 1 µM,0.769 GR
same,GR value,[10]; 3.162 µM,0.63 GR
same,GR value,[10]; 10 µM,0.449 GR
same,GR value,[11]; 0.0001 µM,1.01 GR
same,GR value,[11]; 0.0003162 µM,0.974 GR
same,GR value,[11]; 0.001 µM,0.974 GR
same,GR value,[11]; 0.003162 µM,0.963 GR
same,GR value,[11]; 0.01 µM,0.99 GR
same,GR value,[11]; 0.03162 µM,0.955 GR
same,GR value,[11]; 0.1 µM,0.809 GR
same,GR value,[11]; 0.3162 µM,0.646 GR
same,GR value,[11]; 1 µM,-0.112 GR
same,GR value,[12]; 0.001 µM,0.989 GR
same,GR value,[12]; 0.003162 µM,0.962 GR
same,GR value,[12]; 0.01 µM,0.897 GR
same,GR value,[12]; 0.03162 µM,0.773 GR
same,GR value,[12]; 0.1 µM,0.662 GR
same,GR value,[12]; 0.3162 µM,0.558 GR
same,GR value,[12]; 1 µM,0.405 GR
same,GR value,[12]; 3.162 µM,0.308 GR
same,GR value,[12]; 10 µM,-0.0742 GR
same,GR value,[13]; 0.0003162 µM,1 GR
same,GR value,[13]; 0.001 µM,0.988 GR
same,GR value,[13]; 0.003162 µM,0.987 GR
same,GR value,[13]; 0.01 µM,0.947 GR
same,GR value,[13]; 0.03162 µM,0.881 GR
same,GR value,[13]; 0.1 µM,0.755 GR
same,GR value,[13]; 0.3162 µM,0.64 GR
same,GR value,[13]; 1 µM,0.574 GR
same,GR value,[13]; 3.162 µM,0.468 GR
same,GR value,[14]; 0.0001 µM,0.957 GR
same,GR value,[14]; 0.0003162 µM,0.95 GR
same,GR value,[14]; 0.001 µM,0.98 GR
same,GR value,[14]; 0.003162 µM,0.972 GR
same,GR value,[14]; 0.01 µM,0.974 GR
same,GR value,[14]; 0.03162 µM,1.03 GR
same,GR value,[14]; 0.1 µM,0.979 GR
same,GR value,[14]; 0.3162 µM,0.965 GR
same,GR value,[14]; 1 µM,0.61 GR
same,GR value,[15]; 0.001 µM,0.554 GR
same,GR value,[15]; 0.003162 µM,0.292 GR
same,GR value,[15]; 0.01 µM,0.169 GR
same,GR value,[15]; 0.03162 µM,0.149 GR
same,GR value,[15]; 0.1 µM,0.136 GR
same,GR value,[15]; 0.3162 µM,0.0731 GR
same,GR value,[15]; 1 µM,0.0819 GR
same,GR value,[15]; 3.162 µM,0.0501 GR
same,GR value,[15]; 10 µM,-0.146 GR
same,GR value,[16]; 0.0001 µM,1.01 GR
same,GR value,[16]; 0.0003162 µM,0.998 GR
same,GR value,[16]; 0.001 µM,0.973 GR
same,GR value,[16]; 0.003162 µM,0.925 GR
same,GR value,[16]; 0.01 µM,0.941 GR
same,GR value,[16]; 0.03162 µM,0.885 GR
same,GR value,[16]; 0.1 µM,0.631 GR
same,GR value,[16]; 0.3162 µM,0.132 GR
same,GR value,[16]; 1 µM,-0.0516 GR
same,GR value,[17]; 0.0001 µM,1.01 GR
same,GR value,[17]; 0.0003162 µM,1.01 GR
same,GR value,[17]; 0.001 µM,1.02 GR
same,GR value,[17]; 0.003162 µM,1.02 GR
same,GR value,[17]; 0.01 µM,0.937 GR
same,GR value,[17]; 0.03162 µM,-0.0092 GR
same,GR value,[17]; 0.1 µM,-0.0413 GR
same,GR value,[17]; 0.3162 µM,-0.0777 GR
same,GR value,[17]; 1 µM,-0.119 GR
